Experimental data from patent publication US20160002250A1, “POLYMORPHS AND SALTS OF A COMPOUND” (FORUM Pharmaceuticals Inc., priority 2013, published 2016).
Values after ≈ are worked out from the molar mass of the structure shown. “Also recorded” adds a separate entry of the source. Read-outs that look alike come from different tables or passages of the source. Marks after values point to notes of the source that are not given here.

Tests used:
[1] = Solubility in solvents, slow cooling and evaporation experiments; format: physicochemical; details: MeCN/H2O, 20 volumes, 50° C.
Experimental: 4-(4-(imidazo[1,2-b]pyridazin-2-ylmethoxy)phenyl)-2,2-dimethyl-5-(pyridin-4-yl)furan-3(2H)-one (Form 2 or Form 1; ca. 10 mg per experiment) was weighed into vials, and the stated solvents were added, in increasing portions at 50° C. With each addition, the vials were allowed to shake for ˜20 minutes. Any solutions observed were allowed to cool to room temperature. Those experiments that remained as solutions were pin-holed to allow the solvent to slowly evaporate. Any suspensions observed were subjected to heat/cool cycles, between room temperature and 50° C., four hours at each condition.

[2] = Six-week stability study (elevated humidity, 60° C., room conditions); format: physicochemical
Experimental: The stability to elevated humidity and air oxidation was investigated for both Form 1 and Form 2 of the Free Base. Samples of both materials were stored at 40° C./75% RH, 25° C./96% RH, 60° C. in contact with air and ambient conditions (25° C. in contact with air) for six weeks, and analyses by XRPD, HPLC and ^1H-NMR (for oxidation study samples only) were carried out weekly.

[3] = Gravimetric Vapour Sorption (GVS); format: physicochemical
Experimental: Sorption isotherms were obtained using a SMS DVS Intrinsic moisture sorption analyzer, controlled by DVS Intrinsic Control software v1.0.0.30. The sample temperature was maintained at 25° C. by the instrument controls. The humidity was controlled by mixing streams of dry and wet nitrogen, with a total flow rate of 200 ml/min. The relative humidity was measured by a calibrated Rotronic probe (dynamic range of 1.0-100% RH), located near the sample. The weight change, (mass relaxation) of the sample as a function of % RH was constantly monitored by the microbalance (accuracy ±0.005 mg).
Typically 5-30 mg of sample was placed in a tared mesh stainless steel basket under ambient conditions. The sample was loaded and unloaded at 40% relative humidity (RH) and 25° C. (typical room conditions). A moisture sorption isotherm was performed as outlined below in Table 4 (2 scans giving 1 complete cycle). The standard isotherm was performed at 25° C. at 10% RH intervals over a 0-90% RH range. Data analysis was undertaken in Microsoft Excel using DVS Analysis Suite. The sample was recovered after completion of the isotherm and re-analyzed by XRPD.

[4] = Storage at elevated humidity; format: physicochemical; details: seven days
Experimental: Samples were place on a glass slide and sealed in an airtight plastic container, along with an open beaker of saturated aqueous salt solution, and stored at a known regulated temperature. A saturated solution of NaCl was used to obtain a relative humidity of 75% at 40° C., whilst a saturated solution of potassium nitrate was used to provide 92% RH at 25° C.

[5] = Thermodynamic aqueous solubility; details: for Thermodynamic solubility: 25° C.; for solubility thermodynamic at 24 h / solubility at 24 h: 25 °C, thermodynamic from solid
Experimental: The suspension was equilibrated at 25° C. for 24 hours then the pH was measured and adjusted with either HCl or NaOH if it deviated by more than 0.3 units from the target pH. The suspension was then filtered through a glass fiber C filter. […] Different volumes of the standard, diluted and undiluted sample solutions were injected.
Analysis was performed on an Agilent HP1100 series system equipped with a diode array detector and using ChemStation software. The following buffers were prepared to carry out the solubility analyses:
pH 1.2—made up by adding 85.0 mL of 0.2M HCl(aq) to 50 mL of 0.2M KCl(aq) and making up to 200 mL. pH 4.5—made up by adding 2.99 g of NaC2H3O2.3H2O to 14.0 mL of 2N AcOH(aq) and making up to 1000 mL. pH 7.4—made up adding 39.1 mL of 0.2M NaOH(aq) to 50.0 mL of a 0.2M KH2PO4 and making up to 200 mL.

[6] = Log P determination (potentiometric titration); format: physicochemical; details: octanol/ionic-strength adjusted (ISA) water
Text: Data were collected by potentiometric titration on a Sirius G1pKa instrument using three ratios of octanol:ionic-strength adjusted (ISA) water to generate Log P, Log Pion, and Log D values. The data were refined using Refinement Pro software. Prediction of Log P values was made using ACD/Labs software.

[7] = pKa determination (Sirius GlpKa); format: physicochemical; details: 25° C.
Experimental: Data were collected on a Sirius G1pKa instrument with a D-PAS attachment. Measurements were made at 25° C. in aqueous solution by UV and in methanol water mixtures by potentiometry. The titration media was ionic-strength adjusted (ISA) with 0.15 M KCl (aq). The values found in the methanol water mixtures were corrected to 0% co-solvent via a Yasuda-Shedlovsky extrapolation. The data were refined using Refinement Pro software v2.2. Prediction of pKa values was made using ACD/Labs software.

[8] = Stability of amorphous material at room and elevated humidity conditions; format: physicochemical
Experimental: A DSC experiment was performed to assess the possibility of preparing amorphous material by melting and quench cooling. A sample of Form 1 (˜1 mg) was heated to 200° C. until it melted, then quickly cooled down to −80° C. and re-heated at 10° C./min. […] The crystalline Form 1 then melted at 184° C.
The experiment was repeated on a larger scale (batches of ˜60 mg) on the TGA instrument, and the resulting glasses were used as input materials for maturation experiments. Samples were also stored at elevated humidity conditions for re-analysis by XRPD after 24 h.

CC1(C)OC(c2ccncc2)=C(c2ccc(OCc3cn4ncccc4n3)cc2)C1=O [Form 1, 4-(4-(imidazo[1,2-b]pyridazin-2-ylmethoxy)phenyl)-2,2-dimethyl-5-(pyridin-4-yl)furan-3(2H)-one]
Solubility (volumes) [1]: Almost
Purity (area %) ([2]; 25° C./96% RH, Week 1): 96.6 area %
Purity (area %) ([2]; 25° C./96% RH, Week 2): 95.5 area %
Purity (area %) ([2]; 25° C./96% RH, Week 3): 96.5 area %
Purity (area %) ([2]; 25° C./96% RH, Week 4): 95.9 area %
Purity (area %) ([2]; 25° C./96% RH, Week 5, samples run after 24 hours in solution): 91.8* area %
Purity (area %) ([2]; 25° C./96% RH, Week 6): 95.5 area %
Stability to elevated humidity and air oxidation ([2]; 40° C./75% RH, 25° C./96% RH, 60° C. and ambient conditions, six weeks, XRPD, HPLC, 1H-NMR): No significant changes; also recorded: no significant degradation
Purity (area %) ([2]; 40° C./75% RH, Week 1): 96.9 area %
Purity (area %) ([2]; 40° C./75% RH, Week 2): 96.3 area %
Purity (area %) ([2]; 40° C./75% RH, Week 3): 96.5 area %
Purity (area %) ([2]; 40° C./75% RH, Week 4): 95.6 area %
Purity (area %) ([2]; 40° C./75% RH, Week 5, samples run after 24 hours in solution): 95.6* area %
Purity (area %) ([2]; 40° C./75% RH, Week 6): 96.8 area %
Changes after storage at 60° C. ([2]; 60° C., 4 weeks): no significant changes
Purity (area %) ([2]; 60° C., Week 1): 96.8 area %
Purity (area %) ([2]; 60° C., Week 2): 95.2 area %
Purity (area %) ([2]; 60° C., Week 3): 95.5 area %
Purity (area %) ([2]; 60° C., Week 4): 94.8 area %
Purity (area %) ([2]; 60° C., Week 5, samples run after 24 hours in solution): 96.0* area %
Purity (area %) ([2]; 60° C., Week 6): 95.9 area %
Changes by 1H-NMR or HPLC after storage at 60° C. ([2]; 60° C., six weeks): no significant changes
Purity (area %) ([2]; Room conditions, Week 1): 96.5 area %
Purity (area %) ([2]; Room conditions, Week 2): 94.9 area %
Purity (area %) ([2]; Room conditions, Week 3): 96.6 area %
Purity (area %) ([2]; Room conditions, Week 4): 96.0 area %
Purity (area %) ([2]; Room conditions, Week 5, samples run after 24 hours in solution): 95.5* area %
Purity (area %) ([2]; Room conditions, Week 6): 95.9 area %
Stability to humidity ([2]; elevated humidity and temperature conditions, after 6 weeks): No changes observed at elevated
Form change by XRPD during GVS ([3]; RH 0% to 90%): No form change
GVS water uptake (% of mass) ([3]; RH from 0% to 90%, 25° C.): 0.9%
Change in XRPD pattern on storage ([4]; 25° C./92% RH): no significant change in the XRPD pattern
Change in XRPD pattern on storage ([4]; 40° C./75% RH): no significant change in the XRPD pattern
pH of saturated unfiltered solution ([5]; DI water): 7.67
Thermodynamic solubility ([5]; DI water, 24 hours): 60 µg/mL
solubility thermodynamic at 24 h ([5]; deionized water, water, thermodynamic aqueous solubility, at pH 7.67 (Form 1), pH 7.23 (Form 2)): ~60 µg/mL (≈ 145 µM)
pH of saturated unfiltered solution ([5]; pH 1.2 buffer): 1.40
Thermodynamic solubility ([5]; pH 1.2 buffer, 24 hours): 32000 µg/mL
pH of saturated unfiltered solution ([5]; pH 4.5 buffer): 4.67
Thermodynamic solubility ([5]; pH 4.5 buffer, 24 hours): 60 µg/mL
pH of saturated unfiltered solution ([5]; pH 7.4 buffer): 7.46
solubility thermodynamic at 24 h ([5]; pH 7.4 buffer, pH 7.4, aqueous buffer, Thermodynamic solubility, 24 hours): 50 µg/mL (≈ 121 µM)

CC1(C)OC(c2ccncc2)=C(c2ccc(OCc3cn4ncccc4n3)cc2)C1=O [Free Base, 4-(4-(imidazo[1,2-b]pyridazin-2-ylmethoxy)phenyl)-2,2-dimethyl-5-(pyridin-4-yl)furan-3(2H)-one]
logP [6]: 3
pKa ([7]; read-out: pKa (first of two basic centers)): 3.7
pKa ([7]; read-out: pKa (second of two basic centers)): 2.9
solubility at 24 h ([5]; aqueous buffer, pH 1.2, simulated gastric fluid): 12200 µg/mL (≈ 29600 µM)
solubility at 24 h ([5]; aqueous buffer, pH 4.5, aqueous buffer): 90 µg/mL (≈ 218 µM)
solubility at 24 h ([5]; aqueous buffer, pH 7.4, aqueous buffer): 50 µg/mL (≈ 121 µM)
pH of unfiltered saturated solution ([5]; pH point 1.2): 1.24
pH of unfiltered saturated solution ([5]; pH point 4.5): 4.71
pH of unfiltered saturated solution ([5]; pH point 7.4): 7.44
pH of unfiltered saturated solution ([5]; pH point unadjusted aqueous): 6.19
solubility at 24 h ([5]; water (unadjusted aqueous), water): 60 µg/mL (≈ 145 µM)

CC1(C)OC(c2ccncc2)=C(c2ccc(OCc3cn4ncccc4n3)cc2)C1=O [amorphous material, 4-(4-(imidazo[1,2-b]pyridazin-2-ylmethoxy)phenyl)-2,2-dimethyl-5-(pyridin-4-yl)furan-3(2H)-one]
Form by XRPD after storage at elevated humidity ([8]; elevated humidity conditions, 24 h): All solids displayed Form 1
Form on standing at room conditions ([8]; typically 25° C., 40% RH): converted to Form 1
